“And” between values parts separate entries of the source, which are not always exact repeats. Identical values can stand only once.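 Growth conditions: 96-well plates. Treatment: test compound, 48 hours, 5 concentrations. Analysis: linear interpolation between bracketing concentrations; unreached endpoints set to highest concentration. GI50: concentration for 50% inhibition of growth. The concentration for full growth arrest is given as TGI.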
Columns and labels:
Test in all cases: NCI tumour cell line growth inhibition, 48 h
OVCAR-5 ovarian = system: OVCAR-5 ovarian
SK-MEL-28 melanoma = system: SK-MEL-28 melanoma
SF-268 CNS = system: SF-268 CNS
HOP-62 NSCLC = system: HOP-62 NSCLC
EKVX NSCLC = system: EKVX NSCLC
OVCAR-8 ovarian = system: OVCAR-8 ovarian
BT-549 breast = system: BT-549 breast
SF-295 CNS = system: SF-295 CNS
SNB-19 CNS = system: SNB-19 CNS
HCC-2998 colon = system: HCC-2998 colon

Compound	TGI (OVCAR-5 ovarian)	TGI (SK-MEL-28 melanoma)	TGI (SF-268 CNS)	TGI (HOP-62 NSCLC)	TGI (EKVX NSCLC)	TGI (OVCAR-8 ovarian)	TGI (BT-549 breast)	TGI (SF-295 CNS)	TGI (SNB-19 CNS)	GI50 (OVCAR-5 ovarian)	GI50 (SK-MEL-28 melanoma)	GI50 (SF-268 CNS)	GI50 (HOP-62 NSCLC)	GI50 (OVCAR-8 ovarian)	GI50 (BT-549 breast)	GI50 (HCC-2998 colon)	TGI (HCC-2998 colon)	GI50 (SF-295 CNS)	GI50 (SNB-19 CNS)	GI50 (EKVX NSCLC)
COc1cc2c(cc1O)-c1c(cnn1-c1ccc([N+](=O)[O-])cc1)CCC2	61.2 µM	> 100 µM	> 100 µM	> 100 µM	80.5 µM	50.3 µM	76.1 µM	82.5 µM	> 100 µM											
CS(=O)(=O)OCC1OC(n2ccc(NC(=O)c3ccccc3)nc2=O)CC1OS(C)(=O)=O (stereo not given)	> 100 µM	> 100 µM	> 100 µM	> 100 µM	> 100 µM	> 100 µM	> 100 µM	> 100 µM	> 100 µM											
Nc1ncnc2c1ncn2Cc1ccc(C23CC4CC(CC(C4)C2)C3)c(OCc2cc(F)c(F)cc2F)c1	> 100 µM	> 100 µM	> 100 µM	18.9 µM		> 100 µM	> 100 µM	> 100 µM	> 100 µM	68.6 µM	> 100 µM	8.57 µM	6.98 µM	9.66 µM	> 100 µM	6.26 µM	57.8 µM	6.29 µM	29.5 µM	
CC1(Cl)CC2OC3(Br)C=CC(C)(O)C2(CC1Br)C3(C)C (stereo not given)	> 100 µM	> 100 µM	> 100 µM	> 100 µM	> 100 µM	> 100 µM		> 100 µM	> 100 µM								> 100 µM			
Cc1cc2cc3cc(C)c(N(C)C)cc3[n+](C)c2cc1N(C)C	> 100 µM	8.53 µM	20.5 µM	24.3 µM		14.7 µM	9.62 µM	14 µM	> 100 µM	11.9 µM	2.64 µM	4.1 µM	6.03 µM	2.72 µM	2.55 µM	3.45 µM	16.7 µM	2.53 µM	4.22 µM	
CC(=O)Oc1cc(C)c2c(c1OC(C)=O)CC1(O2)[C@@H](C)CCC2[C@@]3(C)CC[C@H](OC(C)=O)C(C)(C)C3CC[C@]21C (stereo not given in full)	17.4 µM	15.9 µM	12.8 µM	8.3 µM	11.4 µM	13.7 µM		16.2 µM	29.8 µM								19.2 µM			
Clc1cc2c(cc1Cl)Oc1cc(Cl)c(Cl)cc1O2	> 0.625 µM	> 0.625 µM	> 0.625 µM	> 0.625 µM		> 0.625 µM	> 0.625 µM		> 0.625 µM	> 0.625 µM	> 0.625 µM	> 0.625 µM	> 0.625 µM	> 0.625 µM	> 0.625 µM	> 0.625 µM	> 0.625 µM		> 0.625 µM	
Nc1nc2sc3ccccc3c(=O)n2n1	> 100 µM	> 100 µM	> 100 µM	> 100 µM	> 100 µM	> 100 µM		> 100 µM	> 100 µM								> 100 µM			
CC(=O)N1c2ccccc2C2=CC3C4C(=O)N(c5ccccc5)C(=O)C4C21C1C(=O)N(c2ccccc2)C(=O)C31 (stereo not given)	> 100 µM	> 100 µM	> 100 µM			> 100 µM		39.1 µM	> 100 µM								> 100 µM			
Cc1noc2cccc(OCc3ccccc3)c12	> 100 µM	> 100 µM	> 100 µM	> 100 µM	> 100 µM	> 100 µM		> 100 µM	> 100 µM											
O=S(=O)(N/N=C/c1ccc(Cl)c(Cl)c1)c1ccccc1	> 100 µM	> 100 µM	> 100 µM	> 100 µM	> 100 µM	> 100 µM		> 100 µM									> 100 µM			
COC(c1cccc(C(O)(C(F)(F)F)C(F)(F)F)c1)(C(F)(F)F)C(F)(F)F	32.4 µM		38.5 µM	33.7 µM	33.3 µM	45.4 µM		30.2 µM	34.5 µM								21.7 µM			
CCOC(=O)N1C2C=C(C)C(ON2C(=O)c2ccccc2)C2C(C)C(=O)N21 (stereo not given)	> 100 µM	> 100 µM	> 100 µM	> 100 µM	> 100 µM	> 100 µM		> 100 µM	> 100 µM								> 100 µM			
N#CC(/C(=N/NC(=O)C(=O)NN)C(=O)Nc1nc([N+](=O)[O-])cs1)c1ccc(Cl)cc1 (stereo not given)	> 100 µM	> 100 µM	> 100 µM	> 100 µM	> 100 µM	> 100 µM		> 100 µM	> 100 µM								> 100 µM			
Cc1ccccc1C1=[N+]([O-])c2ccccc2C1=O	43.1 µM	35.8 µM	36.8 µM	57.2 µM	35.4 µM	30.3 µM		44.9 µM	> 100 µM											
COc1ccc2c(c1)C(=O)N1CCOC1C2C(=O)O (stereo not given)	> 100 µM	> 100 µM	> 100 µM	> 100 µM	> 100 µM	> 100 µM		29.8 µM	> 100 µM								> 100 µM			
O=C(C=Nc1ccccc1C(=O)[O-])c1cccs1.O=C(C=Nc1ccccc1C(=O)[O-])c1cccs1.[Co+2]	> 100 µM	> 100 µM	> 100 µM	> 100 µM		> 100 µM		> 100 µM	> 100 µM								> 100 µM			
CCCCCCCC(=O)NCC(O)CNC(=O)CCCCCCC	> 100 µM		> 100 µM	> 100 µM	> 100 µM	> 100 µM		> 100 µM	> 100 µM								> 100 µM			
O=C(O)C1=CCCc2ccc3ccccc3c21	> 100 µM	> 100 µM	> 100 µM		> 100 µM	> 100 µM		> 100 µM	> 100 µM											
O=C(Nc1ccccc1)c1nn(-c2cc(S(=O)(=O)O)c([N+](=O)[O-])cc2Cl)[n+](-c2cc(S(=O)(=O)[O-])c([N+](=O)[O-])cc2Cl)n1	> 100 µM	> 100 µM	> 100 µM	> 100 µM	> 100 µM			> 100 µM	> 100 µM								> 100 µM			
CSc1cccc(-n2c3nc(=O)n(C)c(=O)c-3nc3ccccc32)c1	32 µM	37.3 µM	61.9 µM	45.3 µM	36.6 µM	57.6 µM		23.6 µM	65.9 µM								16.5 µM			
CC(=O)O[C@@]12CO[C@@H]1C[C@H](O)[C@@]1(C)C(=O)[C@H](O)C3=C(C)[C@@H](OC(=O)[C@H](O)[C@@H](NC(=O)OC(C)(C)C)c4ccccc4)C[C@@](O)([C@@H](OC(=O)c4ccccc4)[C@H]21)C3(C)C		36.5 µM	77.6 µM	3.78 µM		> 79.3 µM		0.133 µM			0.0327 µM and 0.0359 µM	0.0677 µM and 0.0392 µM	0.0844 µM and 0.0428 µM	0.0139 µM and 0.0138 µM		0.0182 µM		0.0123 µM and 0.0146 µM	0.00175 µM	0.0464 µM
CCN(CC)CCCn1cnc2ncccc2c1=O	> 100 µM	> 100 µM	> 100 µM	> 100 µM	> 100 µM	> 100 µM		> 100 µM	> 100 µM											
C/C=C/C1=C(Cl)C(=O)[C@@H](Cl)[C@@]1(O)C(=O)OC	24.5 µM	14.2 µM	24.2 µM	2.42 µM	9.27 µM	6.45 µM		27.9 µM	19.9 µM								8.84 µM			
O=C(CCC(=O)Nc1cccc(Cl)c1)CC(=O)c1ccc(F)cc1	> 100 µM	> 100 µM	> 100 µM	> 100 µM		> 100 µM		61.2 µM	> 100 µM								> 100 µM			
[Cl][Sn]([Cl])([c]1ccccc1)[c]1ccccc1	29.3 µM	6.53 µM	30.4 µM		32.1 µM	27.8 µM		33.5 µM	27.7 µM	15.8 µM	2.43 µM	13.2 µM		14.4 µM		15 µM	28.5 µM	17 µM	14.6 µM	17.8 µM
CCOc1ccccc1NC(=O)c1cc2ccccc2cc1O	27.7 µM	20.2 µM	20.4 µM	16.7 µM	11.3 µM	11.3 µM		9.46 µM	25.1 µM	7.06 µM	4.91 µM	3.91 µM	3.32 µM	3.16 µM		4 µM	15.6 µM	2.84 µM	4.28 µM	2.67 µM
CN(C)CCN(C)CC1COC(C)(C)O1 (stereo not given)	> 100 µM	> 100 µM	> 100 µM	> 100 µM	> 100 µM	> 100 µM		> 100 µM	> 100 µM								> 100 µM			
C/C(=N\NC(N)=S)c1cc(C)c(C)cc1C	46.5 µM	> 100 µM	> 100 µM	> 100 µM	> 100 µM	> 100 µM		> 100 µM									> 100 µM			
Cc1oc2c(C)c3oc(=O)cc(C)c3cc2c1CNC(=O)[C@@H]1OCCOCCOCCOCCOCCOC1C(=O)O (stereo not given in full)	> 100 µM		> 100 µM	> 100 µM	> 100 µM	> 100 µM		> 100 µM	> 100 µM								> 100 µM			

From PubChem BioAssay (NCI)
